Legend:
human V1a receptor = target: T1, human V1a receptor (Homo sapiens, UniProt P37288); experiment: Cellular in vitro assay for determining vasopressin receptor activity (V1a, aequorin luminescence); format: cell-based; conditions: for IC50: CHO cell line transfected with the human V1a receptor, [Arg8]-vasopressin at EC50 concentration, read-out: IC50 hV1a; for ratio IC50 hV2/hV1a: selectivity ratio of IC50 hV2 to IC50 hV1a
T1 construct: expressed in transfected cells; host or cells: CHO K1 (ATCC), also stably transfected with a modified aequorin
Method: (§1) B-1. Cellular In Vitro Assay for Determining Vasopressin Receptor Activity
(§2) The identification of agonists and antagonists of the V1a and V2 vasopressin receptors from humans, rats and dogs as well as the quantification of the activity of the compounds of the invention is carried out using recombinant cell lines. These cell lines originally derive from a hamster's ovary epithelial cell (Chinese Hamster Ovary, CHO K1, ATCC: American Type Culture Collection, Manassas, Va. 20108, USA). The test cell lines constitutively express the human, rat or dog V1a or V2 receptors. In case of the Gαq-coupled V1a receptors, cells are also stably transfected with a modified form of the calcium-sensitive photoproteins aequorin (human and rat V1a) or obelin (dog V1a), which, after reconstitution with the cofactor coelenterazine, emit light when there are increases in free calcium concentrations [Rizzuto R, Simpson A W, Brini M, Pozzan T, Nature 358, 325-327 (1992); Illarionov B A, Bondar V S, Illarionova V A, Vysotski E S, Gene 153 (2), 273-274 (1995)]. The resulting vasopressin receptor cells react to stimulation of the recombinantly expressed V1a receptors by intracellular release of calcium ions, which can be quantified by the resulting photoprotein luminescence. The Gs-coupled V2 receptors are stably transfected into cell lines expressing the gene for firefly luciferase under control of a CRE-responsible promoter. Activation of V2 receptors induces the activation of the CRE-responsive promoter via cAMP increase, thereby inducing the expression of firefly luciferase. The light emitted by photoproteins of V1a cell lines as well as the light emitted by firefly luciferase of V2 cell lines corresponds to the activation or inhibition of the respective vasopressin receptor. The bioluminescence of the cell lines is detected using a suitable luminometer [Milligan G, Marshall F, Rees S, Trends in Pharmacological Sciences 17, 235-237 (1996)].
Vasopressin V1a receptor cell lines:
On the day before the assay, the cells are plated out in culture medium (DMEM/F12, 2% FCS, 2 mM glutamine, 10 mM HEPES, 5 μg/ml coelenterazine) in 384-well microtiter plates and kept in a cell incubator (96% humidity, 5% v/v CO2, 37° C.). On the day of the assay, test compounds in various concentrations are placed for 10 minutes in the wells of the microtiter plate before the agonist [Arg^8]-vasopressin at EC50 concentration is added. The resulting light signal is measured immediately in a luminometer.
(§3) Table 1A below lists individual IC50 values for the compounds of the invention (including racemic mixtures as well as separated enantiomers) that were obtained from cell lines transfected with the human V1a or V2 receptor: […]

human V2 receptor = target: T2, human V2 receptor (Homo sapiens, UniProt P30518); experiment: Cellular in vitro assay for determining vasopressin receptor activity (V2, CRE-luciferase); format: cell-based; conditions: CHO cell line transfected with the human V2 receptor; [Arg8]-vasopressin at EC50 concentration; read-out: IC50 hV2
T2 construct: expressed in transfected cells; host or cells: CHO K1 (ATCC) expressing firefly luciferase under a CRE-responsive promoter
Method: as §1, §2
Vasopressin V2 receptor cell lines:
On the day before the assay, the cells are plated out in culture medium (DMEM/F12, 2% FCS, 2 mM glutamine, 10 mM HEPES) in 384-well microtiter plates and kept in a cell incubator (96% humidity, 5% v/v CO2, 37° C.). On the day of the assay, test compounds in various concentrations and the agonist [Arg^8]-vasopressin at EC50 concentration are added together to the wells, and plates are incubated for 3 hours in a cell incubator. Upon addition of the cell lysis reagent Triton™ and the substrate luciferin, luminescence of firefly luciferase is measured in a luminometer.
as §3

T2 sequence (P30518 whole entry): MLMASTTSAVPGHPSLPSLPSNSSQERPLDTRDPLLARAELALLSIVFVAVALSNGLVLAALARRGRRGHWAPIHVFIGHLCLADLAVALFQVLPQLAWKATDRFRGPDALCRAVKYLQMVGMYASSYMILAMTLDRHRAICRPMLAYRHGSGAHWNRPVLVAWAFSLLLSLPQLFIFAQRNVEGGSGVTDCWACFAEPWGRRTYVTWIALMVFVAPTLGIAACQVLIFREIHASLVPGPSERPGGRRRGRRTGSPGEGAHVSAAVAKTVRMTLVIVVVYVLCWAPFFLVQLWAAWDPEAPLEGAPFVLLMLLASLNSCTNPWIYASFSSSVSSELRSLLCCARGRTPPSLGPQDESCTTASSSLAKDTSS
T1 sequence (P37288 whole entry): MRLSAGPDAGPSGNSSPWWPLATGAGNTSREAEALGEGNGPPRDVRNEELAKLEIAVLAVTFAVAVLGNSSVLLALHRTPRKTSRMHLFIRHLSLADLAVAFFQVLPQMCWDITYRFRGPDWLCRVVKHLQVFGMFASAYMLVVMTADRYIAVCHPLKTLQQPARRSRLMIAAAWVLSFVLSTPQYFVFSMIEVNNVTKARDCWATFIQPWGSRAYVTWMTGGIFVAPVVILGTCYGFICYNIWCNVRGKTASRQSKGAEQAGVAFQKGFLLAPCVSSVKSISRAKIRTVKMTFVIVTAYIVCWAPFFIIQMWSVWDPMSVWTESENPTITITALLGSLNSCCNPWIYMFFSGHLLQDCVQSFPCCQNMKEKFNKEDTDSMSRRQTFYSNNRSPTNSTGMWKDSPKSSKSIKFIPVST

Row | SMILES | IC50 (human V1a receptor) [nM] | ratio IC50 hV2/hV1a (human V1a receptor) | IC50 (human V2 receptor) [nM]
1 | COc1ccccc1-n1nc(Cn2nc(-c3ccc(Cl)cc3)n(C[C@H](OC(N)=O)C(F)(F)F)c2=O)nc1C(C)OC(N)=O (single isomer, unassigned) [Example 42] | 1.08 | 6.8 | 7.37
2 | CC(N)c1nc(Cn2nc(-c3ccc(Cl)cc3)n(C[C@H](O)C(F)(F)F)c2=O)nn1-c1cccc(F)c1 (single isomer, unassigned) [Example 54] | 3.09 | 1.4 | 4.2
3 | CC(N)c1nc(Cn2nc(-c3ccc(Cl)cc3)n(C[C@H](O)C(F)(F)F)c2=O)nn1-c1cccc(F)c1 (single isomer, unassigned) [Example 55] | 18 | 1.4 | 26
4 | CC(N)c1nc(Cn2nc(-c3ccc(Cl)cc3)n(C[C@H](O)C(F)(F)F)c2=O)nn1-c1ccccc1Cl (single isomer, unassigned) [Example 61] | 0.45 | 6.3 | 2.83
5 | CC(N)c1nc(Cn2nc(-c3ccc(Cl)cc3)n(C[C@H](O)C(F)(F)F)c2=O)nn1-c1ccccc1Cl (single isomer, unassigned) [Example 62] | 0.97 | 11.7 | 11.4
6 | CC(=O)NC(C)c1nc(Cn2nc(-c3ccc(Cl)cc3)n(C[C@H](O)C(F)(F)F)c2=O)nn1-c1ccccc1Cl (single isomer, unassigned) [Example 65] | 2.05 | 5.3 | 10.8
7 | CC(=O)NC(C)c1nc(Cn2nc(-c3ccc(Cl)cc3)n(C[C@H](O)C(F)(F)F)c2=O)nn1-c1ccccc1Cl (single isomer, unassigned) [Example 66] | 3.75 | 14.0 | 52.5
8 | CC(NS(C)(=O)=O)c1nc(Cn2nc(-c3ccc(Cl)cc3)n(C[C@H](O)C(F)(F)F)c2=O)nn1-c1ccccc1Cl (single isomer, unassigned) [Example 68] | 0.97 | 4.6 | 4.5
9 | CC(NS(C)(=O)=O)c1nc(Cn2nc(-c3ccc(Cl)cc3)n(C[C@H](O)C(F)(F)F)c2=O)nn1-c1ccccc1Cl (single isomer, unassigned) [Example 69] | 0.7 | 12.4 | 8.65
10 | CN1C(=O)CCC1c1nc(Cn2nc(-c3ccc(Cl)cc3)n(C[C@H](O)C(F)(F)F)c2=O)nn1-c1ccccc1Cl (single isomer, unassigned) [Example 71] | 0.7 | 19.7 | 13.8
11 | CN1C(=O)CCC1c1nc(Cn2nc(-c3ccc(Cl)cc3)n(C[C@H](O)C(F)(F)F)c2=O)nn1-c1ccccc1Cl (single isomer, unassigned) [Example 72] | 0.67 | 9.9 | 6.63
12 | CC(NC(=O)C(F)(F)F)c1nc(Cn2nc(-c3ccc(Cl)cc3)n(C[C@H](O)C(F)(F)F)c2=O)nn1-c1ccccc1Cl (single isomer, unassigned) [Example 74] | 5.35 | 3.4 | 18
13 | CC(NC(=O)C(F)(F)F)c1nc(Cn2nc(-c3ccc(Cl)cc3)n(C[C@H](O)C(F)(F)F)c2=O)nn1-c1ccccc1Cl (single isomer, unassigned) [Example 75] | 4.2 | 14.1 | 59
14 | CC(C)(C)OCC(NS(C)(=O)=O)c1nc(Cn2nc(-c3ccc(Cl)cc3)n(C[C@H](O)C(F)(F)F)c2=O)nn1-c1ccccc1Cl (single isomer, unassigned) [Example 83] | 1.95 | 41.3 | 80.5
15 | CC(C)(C)OCC(NS(C)(=O)=O)c1nc(Cn2nc(-c3ccc(Cl)cc3)n(C[C@H](O)C(F)(F)F)c2=O)nn1-c1ccccc1Cl (single isomer, unassigned) [Example 84] | 4.75 | 9.4 | 44.5
16 | CS(=O)(=O)NC(CO)c1nc(Cn2nc(-c3ccc(Cl)cc3)n(C[C@H](O)C(F)(F)F)c2=O)nn1-c1ccccc1Cl (single isomer, unassigned) [Example 86] | 0.97 | 2.1 | 2
17 | CS(=O)(=O)NC(CO)c1nc(Cn2nc(-c3ccc(Cl)cc3)n(C[C@H](O)C(F)(F)F)c2=O)nn1-c1ccccc1Cl (single isomer, unassigned) [Example 87] | 2.25 | 15.8 | 35.5
18 | CC(=O)NC(COC(C)(C)C)c1nc(Cn2nc(-c3ccc(Cl)cc3)n(C[C@H](O)C(F)(F)F)c2=O)nn1-c1ccccc1Cl (single isomer, unassigned) [Example 89] | 3.45 | 37.4 | 129
19 | CC(=O)NC(COC(C)(C)C)c1nc(Cn2nc(-c3ccc(Cl)cc3)n(C[C@H](O)C(F)(F)F)c2=O)nn1-c1ccccc1Cl (single isomer, unassigned) [Example 90] | 12.5 | 392.0 | 4900
20 | CC(=O)NC(CO)c1nc(Cn2nc(-c3ccc(Cl)cc3)n(C[C@H](O)C(F)(F)F)c2=O)nn1-c1ccccc1Cl (single isomer, unassigned) [Example 92] | 5.1 | 3.4 | 17.5
21 | CC(=O)NC(CO)c1nc(Cn2nc(-c3ccc(Cl)cc3)n(C[C@H](O)C(F)(F)F)c2=O)nn1-c1ccccc1Cl (single isomer, unassigned) [Example 93] | 0.78 | 20.0 | 15.5
22 | O=C(NC(CO)c1nc(Cn2nc(-c3ccc(Cl)cc3)n(C[C@H](O)C(F)(F)F)c2=O)nn1-c1ccccc1Cl)C(F)(F)F (single isomer, unassigned) [Example 96] | 0.55 | 6.0 | 3.25
23 | O=C(NC(CO)c1nc(Cn2nc(-c3ccc(Cl)cc3)n(C[C@H](O)C(F)(F)F)c2=O)nn1-c1ccccc1Cl)C(F)(F)F (single isomer, unassigned) [Example 97] | 4.45 | 4.5 | 20
24 | O=C1NC(c2nc(Cn3nc(-c4ccc(Cl)cc4)n(C[C@H](O)C(F)(F)F)c3=O)nn2-c2ccccc2Cl)CO1 (single isomer, unassigned) [Example 99] | 3.3 | 6.4 | 21
25 | O=C1NC(c2nc(Cn3nc(-c4ccc(Cl)cc4)n(C[C@H](O)C(F)(F)F)c3=O)nn2-c2ccccc2Cl)CO1 (single isomer, unassigned) [Example 100] | 4.33 | 20.2 | 87.5
26 | CN1C(=O)CC[C@@H]1c1nc(Cn2nc(-c3ccc(Cl)cc3)n(C[C@H](O)C(F)(F)F)c2=O)nn1-c1ncccc1Cl (single isomer, unassigned) [Example 104] | 3.1 | 56.4 | 175
27 | CN1C(=O)CC[C@@H]1c1nc(Cn2nc(-c3ccc(Cl)cc3)n(C[C@H](O)C(F)(F)F)c2=O)nn1-c1ncccc1Cl (single isomer, unassigned) [Example 105] | 2.1 | 24.3 | 51
28 | CC(=O)NC(C)c1nc(Cn2nc(-c3ccc(Cl)cc3)n(C[C@H](O)C(F)(F)F)c2=O)nn1-c1ncccc1Cl (single isomer, unassigned) [Example 108] | 6.03 | 11.5 | 69.4
29 | CC(=O)NC(C)c1nc(Cn2nc(-c3ccc(Cl)cc3)n(C[C@H](O)C(F)(F)F)c2=O)nn1-c1ncccc1Cl (single isomer, unassigned) [Example 109] | 39 | 10.5 | 408

— patent publication US20210253557A1, “SUBSTITUTED TRIAZOLE DERIVATIVES AND USES THEREOF” (Bayer Pharma Aktiengesellschaft, priority 2017, published 2021)
